This passage reports GI50 and TGI results from PubChem BioAssay (NCI).

One may read the GI50 as the concentration at which growth is held to half of that of the control. One may read the TGI as the concentration giving total growth inhibition. The low end stands for more potent growth arrest, the high end for less potent growth arrest.

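Where inhibition never reached the appropriate level, the endpoint shown equals the highest concentration tested. Otherwise, values were interpolated linearly from a five-concentration, 48-hour dose response in 96-well plates. GI50 is the concentration that inhibits growth by half. TGI denotes the concentration required for complete inhibition of growth.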

The test system of one test is A498 renal. Briefly: DTP human tumour cell line panel, 48 h.
On to `O=C(/C=C/c1cc(CN2CCOCC2)c(O)c2ncccc12)c1cc(CN2CCOCC2)c(O)c2ncccc12`, for which the GI50 was 0.246 µM and the concentration for total growth inhibition (TGI) turned out to be 18 µM.

`[Au+].[Au+].[Au+].[c-]1nccn1Cc1ccccc1.[c-]1nccn1Cc1ccccc1.[c-]1nccn1Cc1ccccc1`: the GI50 was 16.1 µM and the TGI was found to be 33.6 µM.

Turning to `Cn1cc(C2=C(c3cn(CCCCCN)c4ccccc34)C(=O)NC2=O)c2ccccc21`, the GI50 was 11.3 µM and the total growth inhibition concentration (TGI) was above 25 µM.

Consider `C=C1C(=O)O[C@H]2[C@H]1CC/C(COC(=O)c1ccc(Cl)nc1)=C\CC[C@@]1(C)O[C@@H]21`, for which the GI50 is 17.8 µM and the concentration for total growth inhibition (TGI) was 32.7 µM.

As to `Cc1cc[c-]cc1.Fc1c[c-]c(-c2ccccn2)c(F)c1.[Pt+2].c1ccc(P(C[PH+](c2ccccc2)c2ccccc2)c2ccccc2)cc1`, the GI50 was 2.04 µM and the TGI was 6.11 µM.

In the case of `COc1cc2ncn(-c3cc(OCCc4ccccc4)c(C(N)=O)s3)c2cc1OC`, the GI50 was 2.43 µM and the TGI is above 22.3 µM.

For `CCCCC1(CN2CCOCC2)S/C(=N/c2nc(CC(=O)OCC)cs2)NC1=O` (stereo not given), the GI50 was 41.5 µM and the TGI is above 100 µM.

As for `O=C(CSC(c1ccccc1)c1ccccc1)N/N=C/c1ccc(Cl)cc1Cl`, the GI50 was 25.6 µM and the concentration for total growth inhibition (TGI) amounted to 52.1 µM.

The next test has as its system HCT-15 colon. Nature of the test: DTP human tumour cell line panel, 48 h.
Take `O=C(/C=C/c1cc(CN2CCOCC2)c(O)c2ncccc12)c1cc(CN2CCOCC2)c(O)c2ncccc12`: the GI50 is 0.0236 µM and the TGI is above 100 µM.

As for `[Au+].[Au+].[Au+].[c-]1nccn1Cc1ccccc1.[c-]1nccn1Cc1ccccc1.[c-]1nccn1Cc1ccccc1`, the GI50 was 19.9 µM and the TGI is 56.7 µM.

Turning to `Cn1cc(C2=C(c3cn(CCCCCN)c4ccccc34)C(=O)NC2=O)c2ccccc21`, the GI50 is 7.01 µM and the TGI is above 25 µM.

Take `C=C1C(=O)O[C@H]2[C@H]1CC/C(COC(=O)c1ccc(Cl)nc1)=C\CC[C@@]1(C)O[C@@H]21`: the GI50 was 1.36 µM and the TGI came out at 3.39 µM.

For `Cc1cc[c-]cc1.Fc1c[c-]c(-c2ccccn2)c(F)c1.[Pt+2].c1ccc(P(C[PH+](c2ccccc2)c2ccccc2)c2ccccc2)cc1`, the GI50 was 3.21 µM and the TGI is 12.6 µM.

Consider `COc1cc2ncn(-c3cc(OCCc4ccccc4)c(C(N)=O)s3)c2cc1OC`, for which the GI50 was above 25 µM and the TGI is above 25 µM.

For `CCCCC1(CN2CCOCC2)S/C(=N/c2nc(CC(=O)OCC)cs2)NC1=O` (stereo not given), the GI50 is 40 µM and the TGI was above 100 µM.

As for `O=C(CSC(c1ccccc1)c1ccccc1)N/N=C/c1ccc(Cl)cc1Cl`, the GI50 was 37.6 µM and the TGI is above 100 µM.

Another test has as its system K-562 leukemia. Nature of the test: DTP human tumour cell line panel, 48 h.
On to `O=C(/C=C/c1cc(CN2CCOCC2)c(O)c2ncccc12)c1cc(CN2CCOCC2)c(O)c2ncccc12`, for which the GI50 was below 0.0114 µM and the TGI was above 100 µM.

Turning to `[Au+].[Au+].[Au+].[c-]1nccn1Cc1ccccc1.[c-]1nccn1Cc1ccccc1.[c-]1nccn1Cc1ccccc1`, the GI50 was 3.82 µM and the TGI is 25 µM.

Take `Cn1cc(C2=C(c3cn(CCCCCN)c4ccccc34)C(=O)NC2=O)c2ccccc21`: the GI50 is 9.14 µM and the TGI is above 25 µM.

For `C=C1C(=O)O[C@H]2[C@H]1CC/C(COC(=O)c1ccc(Cl)nc1)=C\CC[C@@]1(C)O[C@@H]21`, the GI50 was 2.19 µM and the concentration for total growth inhibition (TGI) is 12.2 µM.

In the case of `Cc1cc[c-]cc1.Fc1c[c-]c(-c2ccccn2)c(F)c1.[Pt+2].c1ccc(P(C[PH+](c2ccccc2)c2ccccc2)c2ccccc2)cc1`, the GI50 was 1.56 µM and the TGI came out at 12.2 µM.

As for `COc1cc2ncn(-c3cc(OCCc4ccccc4)c(C(N)=O)s3)c2cc1OC`, the GI50 is above 25 µM and the TGI is above 25 µM.

With `CCCCC1(CN2CCOCC2)S/C(=N/c2nc(CC(=O)OCC)cs2)NC1=O` (stereo not given), the GI50 is 30.9 µM and the TGI was above 100 µM.

With `O=C(CSC(c1ccccc1)c1ccccc1)N/N=C/c1ccc(Cl)cc1Cl`, the GI50 was 19 µM and the TGI is 96.6 µM.

The next test deals with M14 melanoma. Briefly: DTP human tumour cell line panel, 48 h.
As to `O=C(/C=C/c1cc(CN2CCOCC2)c(O)c2ncccc12)c1cc(CN2CCOCC2)c(O)c2ncccc12`, the GI50 was 50.6 nM and the TGI is above 64.2 µM.

Consider `[Au+].[Au+].[Au+].[c-]1nccn1Cc1ccccc1.[c-]1nccn1Cc1ccccc1.[c-]1nccn1Cc1ccccc1`, for which the GI50 is 2750 nM and the TGI came out at 6.68 µM.

With `Cn1cc(C2=C(c3cn(CCCCCN)c4ccccc34)C(=O)NC2=O)c2ccccc21`, the GI50 is 12400 nM and the concentration for total growth inhibition (TGI) was above 25 µM.

With `C=C1C(=O)O[C@H]2[C@H]1CC/C(COC(=O)c1ccc(Cl)nc1)=C\CC[C@@]1(C)O[C@@H]21`, the GI50 is 1710 nM and the TGI came out at 4.02 µM.

As for `Cc1cc[c-]cc1.Fc1c[c-]c(-c2ccccn2)c(F)c1.[Pt+2].c1ccc(P(C[PH+](c2ccccc2)c2ccccc2)c2ccccc2)cc1`, the GI50 was 2910 nM and the TGI was 13.7 µM.

Take `COc1cc2ncn(-c3cc(OCCc4ccccc4)c(C(N)=O)s3)c2cc1OC`: the GI50 is above 25000 nM and the TGI was above 25 µM.

For the molecule `CCCCC1(CN2CCOCC2)S/C(=N/c2nc(CC(=O)OCC)cs2)NC1=O` (stereo not given), the GI50 is 22800 nM and the TGI was found to be 67.3 µM.

On to `O=C(CSC(c1ccccc1)c1ccccc1)N/N=C/c1ccc(Cl)cc1Cl`, for which the GI50 was 29200 nM and the concentration for total growth inhibition (TGI) came out at 87.2 µM.

A further test relates to MOLT-4 leukemia. Nature of the test: DTP human tumour cell line panel, 48 h.
Turning to `O=C(/C=C/c1cc(CN2CCOCC2)c(O)c2ncccc12)c1cc(CN2CCOCC2)c(O)c2ncccc12`, the GI50 was 0.0529 µM and the TGI was above 100 µM.

`[Au+].[Au+].[Au+].[c-]1nccn1Cc1ccccc1.[c-]1nccn1Cc1ccccc1.[c-]1nccn1Cc1ccccc1`: the GI50 was 7.96 µM and the concentration for total growth inhibition (TGI) was above 100 µM.

As for `Cn1cc(C2=C(c3cn(CCCCCN)c4ccccc34)C(=O)NC2=O)c2ccccc21`, the GI50 was 8.09 µM and the TGI is above 22.9 µM.

In the case of `C=C1C(=O)O[C@H]2[C@H]1CC/C(COC(=O)c1ccc(Cl)nc1)=C\CC[C@@]1(C)O[C@@H]21`, the GI50 was 2.57 µM and the TGI stood at 7.2 µM.

As to `Cc1cc[c-]cc1.Fc1c[c-]c(-c2ccccn2)c(F)c1.[Pt+2].c1ccc(P(C[PH+](c2ccccc2)c2ccccc2)c2ccccc2)cc1`, the GI50 was 3.35 µM and the TGI is 12.2 µM.

Consider `COc1cc2ncn(-c3cc(OCCc4ccccc4)c(C(N)=O)s3)c2cc1OC`, for which the GI50 is 12.4 µM and the TGI was above 25 µM.

With `CCCCC1(CN2CCOCC2)S/C(=N/c2nc(CC(=O)OCC)cs2)NC1=O` (stereo not given), the GI50 was 27.7 µM and the TGI is above 100 µM.

`O=C(CSC(c1ccccc1)c1ccccc1)N/N=C/c1ccc(Cl)cc1Cl`: the GI50 is 19.6 µM and the TGI turned out to be 68.1 µM.
